Consider two molecules from patent US6956040B2, “Oxazolidinone piperazinyl derivatives as potential antimicrobials” (Ranbaxy Laboratories Limited, priority 2001, dated 2005).

Converted amounts (≈) assume the structure as drawn.

One may read the MIC as the least concentration at which growth counts as inhibited. As a reminder, the MIC50 is an inhibitory concentration at the 50% level, which refers to growth in some studies and to a panel of isolates in others. A low value points to greater potency. As usually defined, the MIC90 is an inhibitory concentration at the 90% level, which refers to growth in some studies and to a panel of isolates in others. Low values mean higher susceptibility, high ones lower susceptibility.

Test [1] is described as follows: Changes in MIC under different conditions: Broth MIC. In kind it is cell-based. The note with it: strain not given.
Test [2] deals with MRSA 562. The test can be described thus: In vivo activity against MRSA 562 (ED50). Set-up: species or system Staphylococcus aureus.
Test [3] is described as follows: Changes in MIC under different conditions: Agar MIC. Format: cell-based. Particulars: strain not given. As to the method: (§1) The compounds of the invention display antibacterial activity when tested by the agar incorporation method. The following minimum inhibitory concentrations (μg/ml) were obtained for representative compounds of the invention which are given below in the following tables.
(§2) Briefly, the compounds were dissolved in DMSO and doubling dilution of the compounds were incorporated into Meuller Hilton agar before solidification. Inoculum was prepared by suspending 4 to 5 colonies into 5 ml of normal saline solution and adjusting the turbidity to 0.5 Macfarland turbidity standard tables (1.5×10^8 CFU/ml), after appropriate dilutions, 10^4 CFU/spot was transfered into the surface of dried plate and incubated for 18 hours (24 hours for MRSN studies). The concentration showing no growth of the inoculated culture was recorded as the MIC. Appropriate ATCC standard strains were simultaneously tested and result recorded only when the MIC's against standard antibiotics were within the acceptable range.

The subject of test [4] is VRE 6A. The test can be described thus: MIC, agar incorporation method. In kind it is cell-based, Enterococcus faecium. Particulars: VRE 6A; agar incorporation. In a few lines: (§3)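 Compounds in DMSO were added as doubling dilutions to molten Mueller Hinton agar. Spots of 10^4 CFU, diluted from a 0.5 McFarland suspension (1.5×10^8 CFU/ml), were incubated 18 hours (24 hours for MRSN studies). MIC (μg/ml) is the lowest concentration with no visible growth.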

Test [5] relates to S. pyogenes 19615. The test can be described thus: MIC, agar incorporation method. Format: cell-based, Streptococcus pyogenes. The note with it: S. pyogenes 19615; agar incorporation. In a few lines:
as §3

The subject of test [6] is MRSA 562. The test can be described thus: MIC, agar incorporation method. Format: cell-based, Staphylococcus aureus. Particulars: MRSA 562. In a few lines: (§4)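 Agar incorporation: DMSO-dissolved compounds in doubling dilutions set into Mueller Hinton agar; 10^4 CFU/spot inoculum from a 0.5 McFarland suspension. Incubated 18 h (24 h for MRSN). MIC taken as lowest concentration with no growth, accepted only when ATCC control strains were in range.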

Test [7] relates to MRSA 33. The test can be described thus: MIC, agar incorporation method. In kind it is cell-based, Staphylococcus aureus. Particulars: MRSA 33; agar incorporation. In a few lines:
as §4

Test [8] has as its system S. pneum AB 34. The test can be described thus: MIC, agar incorporation method. In kind it is cell-based, Streptococcus pneumoniae. The note with it: S. pneum AB 34; agar incorporation. In a few lines: as §4
Test [9] has as its system S. pneum 6303. The test can be described thus: MIC, agar incorporation method. In kind it is cell-based, Streptococcus pneumoniae. Particulars: S. pneum 6303; agar incorporation. In a few lines:
as §3

Test [10] relates to S. aureus 25923. The test can be described thus: MIC, agar incorporation method. Format: cell-based, Staphylococcus aureus. The note with it: S. aureus 25923; agar incorporation. In a few lines:
as §3

The subject of test [11] is MRSA 15187. The test can be described thus: MIC, agar incorporation method. In kind it is cell-based, Staphylococcus aureus. The note with it: MRSA 15187; agar incorporation. In a few lines: as §3
The test system of test [12] is E. faecalis 29212. The test can be described thus: MIC, agar incorporation method. In kind it is cell-based, Enterococcus faecalis. The note with it: E. faecalis 29212; agar incorporation. In a few lines:
as §3

For test [13], the system named is S. pneumoniae. The test can be described thus: Summary of in vitro activity (MIC) against S. pneumoniae. In kind it is cell-based, Streptococcus pneumoniae. Particulars: S. pneumoniae. The procedure:
as §1, §2

Test [14] deals with E. faecalis. The test can be described thus: Summary of in vitro activity (MIC) against E. faecalis. Format: cell-based, Enterococcus faecalis. The note with it: E. faecalis. The procedure: as §1, §2
Test [15] has as its system G+ve. The test can be described thus: Summary of in vitro activity (MIC) against G+ve bacteria. Format: cell-based. The procedure:
as §1, §2

Test [16] deals with S. aureus. The test can be described thus: Summary of in vitro activity (MIC) against S. aureus. Format: cell-based, Staphylococcus aureus. Particulars: S. aureus. The procedure:
as §1, §2

In the case of `CC(=O)NC[C@H]1CN(c2ccc(N3CCN(C(=O)c4ccoc4)CC3)c(F)c2)C(=O)O1` [Compound No. 08, (S)-N[[3-[3-Fluoro-4-[N-1[4-(3-furoyl)]piperazinyl]phenyl]2-oxo-5-oxazolidinyl]methyl]cetamide], the “Broth MIC +50% Sheep serum” value in [1] (+50% Sheep serum) is 4 µg/mL. Further, the “Broth MIC Normal MH broth” value in test [1] (Normal MH broth) was 2 µg/mL. For the same molecule, the “ED50 (mg/kg body weight) PO” value in test [2] was determined as 25 mg/kg body weight. In addition, the “Agar MIC” value in [3] came to 1 µg/mL. Besides, the MIC was 1 µg/mL (≈ 2.32 µM) in test [4]; 1 µg/mL (≈ 2.32 µM) in test [5]; 1 µg/mL (≈ 2.32 µM) in test [6] (Table 5); 1 µg/mL (≈ 2.32 µM) in test [6] (agar incorporation, Table 1); 1 µg/mL (≈ 2.32 µM) in test [7]; 4 µg/mL (≈ 9.29 µM) in [8]. The MIC in test [9] was 2 µg/mL (≈ 4.65 µM); in test [10] it was 2 µg/mL (≈ 4.65 µM); in test [11], 1 µg/mL (≈ 2.32 µM); in test [12] it was 1 µg/mL (≈ 2.32 µM).
Turning to `CC(=O)NC[C@H]1CN(c2ccc(N3CCN(Cc4ccc([N+](=O)[O-])o4)CC3)c(F)c2)C(=O)O1` [Compound No. 15, (S)-N-[[3-[3-fluoro-4-[N-1-[4-{2-furyl-(5-nitro)methyl}]piperazinyl]phenyl]-2-oxo-5-oxazolidinyl]methyl]acetamide], the “Geometric Mean of in vitro activity (MIC)” value in test [13] came out at 1.04 µg/mL; in test [14] it was 1.6 µg/mL; in test [15] (Gram +ve), 1.08 µg/mL; in test [16], 1.63 µg/mL. The MIC50 in test [13] (Number 19) worked out at 2 µg/mL (≈ 4.33 µM); in test [14] (Number 7) it was 2 µg/mL (≈ 4.33 µM); in [15] (G+ve, Number 49), 1 µg/mL (≈ 2.17 µM); in test [16] (Number 8), 2 µg/mL (≈ 4.33 µM). The MIC90 was 4 µg/mL (≈ 8.67 µM) in [13] (Number 19); 2 µg/mL (≈ 4.33 µM) in test [14] (Number 7); 2 µg/mL (≈ 4.33 µM) in test [15] (G+ve, Number 49); 2 µg/mL (≈ 4.33 µM) in test [16] (Number 8). Moreover, in test [2], the “ED50 (mg/kg body weight) PO” value came to 4.33 mg/kg body weight. Also, the minimum inhibitory concentration (MIC) in test [4] was 1 µg/mL (≈ 2.17 µM); in test [5], 1 µg/mL (≈ 2.17 µM); in test [6] (Table 5) it was 2 µg/mL (≈ 4.33 µM); in test [6] (agar incorporation, Table 1) it was 2 µg/mL (≈ 4.33 µM); in [7], 2 µg/mL (≈ 4.33 µM); in test [8], 2 µg/mL (≈ 4.33 µM). The MIC in test [9] amounted to 1 µg/mL (≈ 2.17 µM); in [10] it was 2 µg/mL (≈ 4.33 µM); in test [11], 2 µg/mL (≈ 4.33 µM); in test [12], 2 µg/mL (≈ 4.33 µM).
